# According to patent publication US20220347175A1, “PYRIDAZINONE DERIVATIVE” (Sumitomo Dainippon Pharma Co., Ltd., priority 2018, published 2022):
# Legend:
# human Nav1.1 = target: T1, human Nav1.1 (Homo sapiens, UniProt P35498); assay: Amplification of Nav1.1-derived voltage-dependent sodium current (Nav1.1 current), cell line stably expressing human Nav1.1, automated patch clamp; type: cell-based; conditions: for activation at 3 µM / activation at 1 µM / activation at 10 µM: read-out: Nav1.1 current amplification rate (%)
# T1 construct: host or cells: HEK293
# In short: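 Amplification rate (%) is 100 × post-compound/pre-compound Nav1.1 peak current or AUC, minus 100. Ramp-evoked sodium currents were recorded by automated patch clamp in a human Nav1.1 HEK293 stable line, restricted to cells exceeding 500 pA, with compounds added in extracellular solution containing 1% DMSO.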
# human Nav1.5 = target: T2, human Nav1.5 (Homo sapiens, UniProt Q14524); assay: Amplification of Nav1.5-derived voltage-dependent sodium current (Nav1.5 current), cell line stably expressing human Nav1.5, automated patch clamp; type: cell-based; conditions: for activation at 3 µM / activation at 1 µM / activation at 10 µM: read-out: Nav1.5 current amplification rate (%)
# T2 construct: expressed in transfected cells; host or cells: CHO-K1 (T-REx System, ThermoFisher Scientific)
# [1] = compound 3 μmol/L, HEK293 stably expressing human Nav1.1
# [2] = compound 3 μmol/L, CHO-K1 stably expressing human Nav1.5
# [3] = 10 μmol/L compound, change of the area under the curve of Nav1.1 current (Test Result 1)
# [4] = 10 μmol/L compound, change of the area under the curve of Nav1.5 current (Test Result 1)
# [5] = compound 1 μmol/L, HEK293 stably expressing human Nav1.1
# [6] = compound 1 μmol/L, CHO-K1 stably expressing human Nav1.5
# T2 sequence (Q14524 1-2015 isoform Q14524-2): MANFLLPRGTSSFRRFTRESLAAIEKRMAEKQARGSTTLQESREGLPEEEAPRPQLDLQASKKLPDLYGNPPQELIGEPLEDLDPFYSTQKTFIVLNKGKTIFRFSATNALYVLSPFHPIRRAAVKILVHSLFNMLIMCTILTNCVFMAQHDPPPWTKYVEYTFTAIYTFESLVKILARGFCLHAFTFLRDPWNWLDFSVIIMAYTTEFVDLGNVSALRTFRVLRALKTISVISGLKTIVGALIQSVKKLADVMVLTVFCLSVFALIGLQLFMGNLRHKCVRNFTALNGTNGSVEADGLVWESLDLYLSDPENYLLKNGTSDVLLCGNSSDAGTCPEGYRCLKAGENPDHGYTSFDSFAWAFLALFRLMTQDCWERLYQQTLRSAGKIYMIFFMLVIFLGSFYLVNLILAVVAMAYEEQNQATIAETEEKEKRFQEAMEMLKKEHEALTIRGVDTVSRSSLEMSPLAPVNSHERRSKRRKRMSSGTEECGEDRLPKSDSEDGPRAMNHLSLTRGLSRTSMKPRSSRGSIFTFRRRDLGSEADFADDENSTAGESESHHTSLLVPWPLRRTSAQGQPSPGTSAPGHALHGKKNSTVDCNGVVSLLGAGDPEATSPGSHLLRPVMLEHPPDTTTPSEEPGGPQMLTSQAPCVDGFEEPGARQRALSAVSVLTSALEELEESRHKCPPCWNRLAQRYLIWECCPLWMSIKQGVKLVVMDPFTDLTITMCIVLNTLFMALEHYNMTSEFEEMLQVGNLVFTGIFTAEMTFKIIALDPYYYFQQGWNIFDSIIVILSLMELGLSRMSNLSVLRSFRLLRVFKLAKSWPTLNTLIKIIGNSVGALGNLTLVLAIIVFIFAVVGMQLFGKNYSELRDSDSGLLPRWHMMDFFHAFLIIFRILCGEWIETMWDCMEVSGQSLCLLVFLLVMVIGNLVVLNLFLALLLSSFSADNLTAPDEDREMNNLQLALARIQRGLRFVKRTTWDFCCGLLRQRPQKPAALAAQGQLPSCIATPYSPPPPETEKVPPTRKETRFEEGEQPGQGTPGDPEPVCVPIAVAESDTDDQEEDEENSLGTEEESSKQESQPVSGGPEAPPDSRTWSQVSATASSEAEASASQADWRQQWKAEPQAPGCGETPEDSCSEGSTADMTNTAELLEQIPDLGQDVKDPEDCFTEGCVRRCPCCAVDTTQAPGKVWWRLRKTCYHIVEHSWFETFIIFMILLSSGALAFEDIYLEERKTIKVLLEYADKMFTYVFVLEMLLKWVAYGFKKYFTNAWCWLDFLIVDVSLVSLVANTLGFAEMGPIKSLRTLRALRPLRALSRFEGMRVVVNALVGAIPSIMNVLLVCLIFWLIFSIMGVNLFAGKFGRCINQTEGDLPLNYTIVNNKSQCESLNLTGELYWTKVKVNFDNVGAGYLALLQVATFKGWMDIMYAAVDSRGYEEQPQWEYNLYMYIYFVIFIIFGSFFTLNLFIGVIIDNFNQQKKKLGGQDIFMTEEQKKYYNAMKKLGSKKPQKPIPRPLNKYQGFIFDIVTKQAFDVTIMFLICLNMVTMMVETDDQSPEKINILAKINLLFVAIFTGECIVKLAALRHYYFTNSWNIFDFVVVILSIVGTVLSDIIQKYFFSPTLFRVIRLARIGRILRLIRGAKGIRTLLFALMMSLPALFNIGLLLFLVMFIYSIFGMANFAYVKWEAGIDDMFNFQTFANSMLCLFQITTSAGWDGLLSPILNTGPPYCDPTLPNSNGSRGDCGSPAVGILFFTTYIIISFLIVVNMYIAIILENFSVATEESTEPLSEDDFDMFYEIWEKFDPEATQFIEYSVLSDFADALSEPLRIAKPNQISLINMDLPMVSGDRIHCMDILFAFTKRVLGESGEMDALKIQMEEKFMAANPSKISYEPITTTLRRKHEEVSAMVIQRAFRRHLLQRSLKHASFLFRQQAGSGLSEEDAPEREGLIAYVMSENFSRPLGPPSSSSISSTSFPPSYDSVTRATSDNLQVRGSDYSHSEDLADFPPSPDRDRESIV
smiles,measurement,setting,value
CC1CC=C(c2ccc(=O)n(CC(=O)N3CC=C(c4ccccc4)CC3)n2)CC1 (racemic) [Example 257],Nav1.1 current amplification rate (%),human Nav1.1; [1],45%
same,Nav1.5 current amplification rate (%),human Nav1.5; [2],0%
CC1CC=C(c2ccc(=O)n(CC(=O)Nc3ccc4oc(CN(C)C)nc4c3)n2)CC1 (racemic) [Example 324],Nav1.1 current amplification rate (%),human Nav1.1; [1],50%
same,Nav1.5 current amplification rate (%),human Nav1.5; [2],5%
COc1nc2cc(NC(=O)Cn3nc(C4=CCC(C)(C)CC4)c(OC)cc3=O)cc(F)c2o1 [Example 494],activation at 3 µM,human Nav1.1; [1],255%
same,activation at 3 µM,human Nav1.5; [2],26%
CC1(C)CC=C(c2ccc(=O)n(CC(=O)Nc3ccn4nccc4c3)n2)CC1 [Example 427],Nav1.1 current amplification rate (%),human Nav1.1; [3],172%
same,Nav1.5 current amplification rate (%),human Nav1.5; [4],63%
Cc1cc(C2=CCC(C)(C)CC2)nn(CC(=O)Nc2ccn3ccnc3c2)c1=O [Example 460],Nav1.1 current amplification rate (%),human Nav1.1; [3],221%
same,Nav1.5 current amplification rate (%),human Nav1.5; [4],46%
O=C(Cn1nc(C2=CCC(C(F)(F)F)CC2)ccc1=O)N1CCN(c2cncc(F)c2)CC1 (racemic) [Example 487],Nav1.1 current amplification rate (%),human Nav1.1; [3],190%
same,Nav1.5 current amplification rate (%),human Nav1.5; [4],109%
"CC1CC=C(c2ccc(=O)n(CC(=O)Nc3ccc4ocnc4c3)n2)CC1 (stereo not shown) [Example 531, N-(1,3-benzooxazol-5-yl)-2-[3-(4-methylcyclohex-1-en-1-yl)-6-oxopyridazin-1(6H)-yl]acetamide]",activation at 1 µM,human Nav1.1; [5],183%
same,activation at 1 µM,human Nav1.5; [6],8%
CN(C)c1cc(N2CCC3(CCCC3)C2)nn(CC(=O)Nc2ccc3ocnc3c2)c1=O [Example 196],activation at 10 µM,human Nav1.1; [3],225%
same,activation at 10 µM,human Nav1.5; [4],18%
CC1CCN(c2ccc(=O)n(CC(=O)Nc3ccc4ccoc4c3)n2)CC1 [Example 163],activation at 10 µM,human Nav1.1; [3],118%
same,activation at 10 µM,human Nav1.5; [4],1%
COc1cc(C2=CCC(C)CC2)nn(CC(=O)Nc2ccn3ccnc3c2)c1=O (stereo not shown) [Example 463],Nav1.1 current amplification rate (%),human Nav1.1; [3],218%
same,Nav1.5 current amplification rate (%),human Nav1.5; [4],9%
O=C(Cn1nc(N2CCCCCC2)ccc1=O)Nc1ccnc(C(F)(F)F)c1 [Example 120],activation at 10 µM,human Nav1.1; [3],176%
same,activation at 10 µM,human Nav1.5; [4],5%
Cc1cn2ccc(NC(=O)Cn3nc(N4CCC(C)CC4)ccc3=O)cc2n1 [Example 174],activation at 10 µM,human Nav1.1; [3],75%
same,activation at 10 µM,human Nav1.5; [4],4%
Cc1ccc(-c2ccc(=O)n(CC(=O)Nc3ccc4ocnc4c3)n2)cn1 [Example 452],Nav1.1 current amplification rate (%),human Nav1.1; [3],10%
same,Nav1.5 current amplification rate (%),human Nav1.5; [4],2%
CC1CC=C(c2ccc(=O)n(CC(=O)N3CC=C(c4cncnc4)CC3)n2)CC1 (racemic) [Example 398],Nav1.1 current amplification rate (%),human Nav1.1; [3],175%
same,Nav1.5 current amplification rate (%),human Nav1.5; [4],29%
COc1ncc(C2=CCN(C(=O)Cn3nc(C4=CCC(C(F)(F)F)CC4)ccc3=O)CC2)cn1 (stereo not shown) [Example 510],activation at 3 µM,human Nav1.1; [1],50%
same,activation at 3 µM,human Nav1.5; [2],7%
COc1cc(C2=CCC(C)CC2)nn(CC(=O)N2CCc3c(N4CCOCC4)cccc32)c1=O (racemic) [Example 473],Nav1.1 current amplification rate (%),human Nav1.1; [3],487%
same,Nav1.5 current amplification rate (%),human Nav1.5; [4],128%
CC1CC=C(c2ccc(=O)n(CC(=O)Nc3ccn4cc(C5CC5)nc4c3)n2)CC1 (racemic) [Example 334],Nav1.1 current amplification rate (%),human Nav1.1; [1],255%
same,Nav1.5 current amplification rate (%),human Nav1.5; [2],25%
Cc1cnc2cc(NC(=O)Cn3nc(N4CCC(C)CC4)ccc3=O)ccn12 [Example 232],activation at 10 µM,human Nav1.1; [3],37%
same,activation at 10 µM,human Nav1.5; [4],8%
CC1CC=C(c2ccc(=O)n(CC(=O)N3CCc4c(Cn5ccnc5)cccc43)n2)CC1 (racemic) [Example 286],Nav1.1 current amplification rate (%),human Nav1.1; [5],848%
same,Nav1.5 current amplification rate (%),human Nav1.5; [6],579%
CC1(C)CC=C(c2ccc(=O)n(CC(=O)N3CCN(c4cccnc4)CC3)n2)CC1 [Example 440],Nav1.1 current amplification rate (%),human Nav1.1; [3],196%
same,Nav1.5 current amplification rate (%),human Nav1.5; [4],7%
CC1CC=C(c2ccc(=O)n(CC(=O)N3CCc4c(-c5cn[nH]c5)cccc43)n2)CC1 (racemic) [Example 254],Nav1.1 current amplification rate (%),human Nav1.1; [1],309%
same,Nav1.5 current amplification rate (%),human Nav1.5; [2],74%
CC1CC=C(c2ccc(=O)n(CC(=O)Nc3ccc4oc(CN5CCC5)nc4c3)n2)CC1 (racemic) [Example 333],Nav1.1 current amplification rate (%),human Nav1.1; [1],25%
same,Nav1.5 current amplification rate (%),human Nav1.5; [2],13%
CC1CC=C(c2ccc(=O)n(CC(=O)Nc3ccc4cnnn4c3)n2)CC1 (racemic) [Example 345],Nav1.1 current amplification rate (%),human Nav1.1; [5],232%
same,Nav1.5 current amplification rate (%),human Nav1.5; [6],46%
O=C(Cn1nc(C2=CCC(F)(F)CC2)ccc1=O)Nc1ccc(C(F)(F)F)nc1 [Example 103],activation at 10 µM,human Nav1.1; [3],58%
same,activation at 10 µM,human Nav1.5; [4],13%
CN(C)c1cc(N2CCC3(CCC3)C2)nn(CC(=O)N2CCc3c(N4CCOCC4)cccc32)c1=O [Example 222],activation at 1 µM,human Nav1.1; [5],137%
same,activation at 1 µM,human Nav1.5; [6],11%
Cc1ncc(-c2cccc3c2CCN3C(=O)Cn2nc(C3=CCCCC3)ccc2=O)cn1 [Example 518],activation at 1 µM,human Nav1.1; [5],344%
same,activation at 1 µM,human Nav1.5; [6],9%
Cc1c(N2CCC(C)(C)CC2)nn(CC(=O)Nc2ccn3ccnc3c2)c(=O)c1C [Example 178],activation at 10 µM,human Nav1.1; [3],44%
same,activation at 10 µM,human Nav1.5; [4],1%
Cc1noc2ccc(NC(=O)Cn3nc(N4CCC(C)CC4)ccc3=O)cc12 [Example 70],Nav1.1 current amplification rate (%),human Nav1.1; [3],68%
same,Nav1.5 current amplification rate (%),human Nav1.5; [4],0%
O=C(Cn1nc(N2CCC3(CCC3)C2)ccc1=O)Nc1ccc2scnc2c1 [Example 160],activation at 10 µM,human Nav1.1; [3],324%
same,activation at 10 µM,human Nav1.5; [4],33%
O=C(Cn1nc(N2CCCC3(CCC3)C2)ccc1=O)Nc1ccc2scnc2c1 [Example 133],activation at 10 µM,human Nav1.1; [3],285%
same,activation at 10 µM,human Nav1.5; [4],12%
COc1cc(N2CCN(C(=O)Cn3nc(C4=CCC(C)CC4)ccc3=O)CC2)ccc1F (stereo not shown) [Example 413],Nav1.1 current amplification rate (%),human Nav1.1; [1],27%
same,Nav1.5 current amplification rate (%),human Nav1.5; [2],1%
CC1(C)CC=C(c2ccc(=O)n(CC(=O)N3CCc4c(OC5COC5)cccc43)n2)CC1 [Example 436],Nav1.1 current amplification rate (%),human Nav1.1; [3],226%
same,Nav1.5 current amplification rate (%),human Nav1.5; [4],31%
CC1(C)CCN(c2ccc(=O)n(CC(=O)Nc3ccn4ccnc4c3)n2)CC1 [Example 192],activation at 10 µM,human Nav1.1; [3],137%
same,activation at 10 µM,human Nav1.5; [4],2%
CC1CC=C(c2ccc(=O)n(CC(=O)N3CCc4cc(N5CCOCC5)ccc43)n2)CC1 (racemic) [Example 246],Nav1.1 current amplification rate (%),human Nav1.1; [3],136%
same,Nav1.5 current amplification rate (%),human Nav1.5; [4],145%
CCc1nc2cc(NC(=O)Cn3nc(N4CCC(C)CC4)ccc3=O)ccc2o1 [Example 97],Nav1.1 current amplification rate (%),human Nav1.1; [3],296%
same,Nav1.5 current amplification rate (%),human Nav1.5; [4],19%
COc1cc(=O)n(CC(=O)Nc2ccc3oc(C(F)F)nc3c2)nc1C1=CCC(C)(C)CC1 [Example 493],activation at 3 µM,human Nav1.1; [1],317%
same,activation at 3 µM,human Nav1.5; [2],20%
CC1CC=C(c2ccc(=O)n(CC(=O)N3CC=C(c4cccnc4)CC3)n2)CC1 (stereo not shown) [Example 402],Nav1.1 current amplification rate (%),human Nav1.1; [3],323%
same,Nav1.5 current amplification rate (%),human Nav1.5; [4],21%
Cc1noc2ccc(NC(=O)Cn3nc(C4=CCC(C)CC4)ccc3=O)cc12 (stereo not shown) [Example 423],Nav1.1 current amplification rate (%),human Nav1.1; [3],11%
same,Nav1.5 current amplification rate (%),human Nav1.5; [4],4%
CC1CCN(c2ccc(=O)n(CC(=O)Nc3ccc4oc(=O)[nH]c4c3)n2)CC1 [Example 82],Nav1.1 current amplification rate (%),human Nav1.1; [3],121%
same,Nav1.5 current amplification rate (%),human Nav1.5; [4],5%
CC1(C)CC=C(c2ccc(=O)n(CC(=O)N3CCN(c4cncc(F)c4)CC3)n2)CC1 [Example 444],Nav1.1 current amplification rate (%),human Nav1.1; [3],292%
same,Nav1.5 current amplification rate (%),human Nav1.5; [4],10%
CC1CCN(c2ccc(=O)n(CC(=O)N3CCc4cc(C(F)(F)F)ccc43)n2)CC1 [Example 189],activation at 10 µM,human Nav1.1; [3],3%
same,activation at 10 µM,human Nav1.5; [4],-2%
CC1CC=C(c2ccc(=O)n(CC(=O)Nc3ccc4oc(CN5CCOCC5)nc4c3)n2)CC1 (racemic) [Example 331],Nav1.1 current amplification rate (%),human Nav1.1; [1],64%
same,Nav1.5 current amplification rate (%),human Nav1.5; [2],9%
CC1CC=C(c2ccc(=O)n(CC(=O)N3CCOc4c(-c5cn[nH]c5)cccc43)n2)CC1 (racemic) [Example 290],Nav1.1 current amplification rate (%),human Nav1.1; [1],94%
same,Nav1.5 current amplification rate (%),human Nav1.5; [2],4.5%
CC1CCN(c2ccc(=O)n(CC(=O)Nc3cncc(Cl)c3)n2)CC1 [Example 63],Nav1.1 current amplification rate (%),human Nav1.1; [3],49%
same,Nav1.5 current amplification rate (%),human Nav1.5; [4],3%
O=C(Cn1nc(N2CCC3(CCCC3)C2)ccc1=O)Nc1ccc2scnc2c1 [Example 128],activation at 10 µM,human Nav1.1; [3],240%
same,activation at 10 µM,human Nav1.5; [4],56%
CC1CCN(c2ccc(=O)n(CC(=O)Nc3cccc(-c4cnc[nH]4)c3)n2)CC1 [Example 171],activation at 3 µM,human Nav1.1; [1],2%
same,activation at 3 µM,human Nav1.5; [2],0%
CC1(C)CCN(c2ccc(=O)n(CC(=O)N3CCc4c(-c5ccnnc5)cccc43)n2)CC1 [Example 235],activation at 1 µM,human Nav1.1; [5],198%
same,activation at 1 µM,human Nav1.5; [6],7%
CC1CC=C(c2ccc(=O)n(CC(=O)N3CCN(c4cccnc4)CC3)n2)CC1 (racemic) [Example 395],Nav1.1 current amplification rate (%),human Nav1.1; [3],343%
same,Nav1.5 current amplification rate (%),human Nav1.5; [4],15%
CC1CC=C(c2ccc(=O)n(CC(=O)Nc3ccn4ncnc4c3)n2)CC1 (racemic) [Example 330],Nav1.1 current amplification rate (%),human Nav1.1; [5],191%
same,Nav1.5 current amplification rate (%),human Nav1.5; [6],47%
CC1CC=C(c2ccc(=O)n(CC(=O)Nc3ccnc(C#N)c3)n2)CC1 (racemic) [Example 362],Nav1.1 current amplification rate (%),human Nav1.1; [5],133%
same,Nav1.5 current amplification rate (%),human Nav1.5; [6],24%
